The values that follow come from patent US8435987B2, “Pyrazolo-pyridinone and pyrazolo-pyrazinone compounds as P38 modulators and methods of use thereof” (Amgen Inc., priority 2007, dated 2013).

SMILES strings stand for the structures. Where two headings read alike, the source gives them in different places. Where only a bound is given, the exact number is not on record here.

In one experiment the target is recombinant human p38α (Homo sapiens, UniProt Q16539). The experiment can be described thus: Purified and activated recombinant human p38α HTRF assay. The conditions noted are these: 1 nM p38α, 50 μM ATP, 100 nM GST-ATF2-Avitag, read-out: p3a IC550. It counts as biochemical. As for the experimental part: Purified and Activated Recombinant Human p38α Assay
Sequence of recombinant human p38α (Q16539 whole entry): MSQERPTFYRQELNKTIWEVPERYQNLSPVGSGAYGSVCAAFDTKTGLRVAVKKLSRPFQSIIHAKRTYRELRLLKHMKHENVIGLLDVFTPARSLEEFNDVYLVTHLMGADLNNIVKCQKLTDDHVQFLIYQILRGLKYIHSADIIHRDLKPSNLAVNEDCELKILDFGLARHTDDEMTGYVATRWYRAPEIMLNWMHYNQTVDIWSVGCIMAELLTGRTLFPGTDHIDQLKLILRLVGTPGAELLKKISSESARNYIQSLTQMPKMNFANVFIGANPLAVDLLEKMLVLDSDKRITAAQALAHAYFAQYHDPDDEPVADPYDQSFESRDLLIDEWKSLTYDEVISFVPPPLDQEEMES
• Kinase Reaction Buffer: Kinase reaction buffer for p38α HTRF assays consists of 50 mM Tris-pH 7.5, 5 mM MgCl2, 0.1 mg/mL BSA, 100 μM Na3VO4 and 0.5 mM DTT. • HTRF Detection Buffer: HTRF detection buffer contains 100 mM HEPES-pH 7.5, 100 mM NaCl, 0.1% BSA, 0.05% Tween-20, and 10 mM EDTA. • Serial Dilution of Compounds: Compounds were dissolved in 100% DMSO and serially diluted (3 fold, 10 point) in a polypropylene 96-well microtiter plate (drug plate). The final starting concentration of compounds in the p38a enzymatic assays was 1 μM. Columns 6 and 12 (HI controls and LO controls respectively) in the drug plate were reserved as controls and contained only DMSO. • Kinase Reaction: The p38α kinase reactions were carried out in a polypropylene 96-well black round bottom assay plate in total volume of 30 μL kinase reaction buffer. Appropriate concentration of purified and activated enzyme (recombinant human) was mixed with indicated concentration of ATP and 100 nM GST-ATF2-Avitag, in the presence or absence (HI control) of Compound. See table below for actual concentrations. In the absence of substrate, the background was measured as LO control. The reaction was allowed to incubate for 1 hour at RT. • Assay Reagent Concentrations: The final reagent concentrations were 1 nM p38α and 50 μM ATP. […] After 60 minutes incubation at room temperature, the assay plate was read in a Discovery Plate Reader. The wells were excited with coherent 320 nm light and the ratio of delayed ([…] post excitation) emissions at […] (native europium fluorescence) and 665 nm (europium fluorescence transferred to allophycocyanin—an index of substrate phosphorylation) was determined (Park et al, 1999). • Data Analysis: The proportion of substrate phosphorylated in the kinase reaction in the presence of compound compared with that phosphorylated in the presence of DMSO vehicle alone (HI control) was calculated using the formula: % control (POC)=(compound−average LO)/(average HI−average LO)*100. Data (consisting of POC and inhibitor concentration in μM) was fitted to a 4-parameter equation (y=A+((B−A)/(1+((x/C)AD))), where A is the minimum y (POC) value, B is the maximum y (POC), C is the x (compound concentration) at the point of inflection and D is the slope factor, using a Levenburg-Marquardt non-linear regression algorithm.
The inhibition constant (Ki) of the inhibitor was estimated from the IC50 (compound concentration at the point of inflection C) using the Cheng-Prussof equation: Ki=IC50/(1+S/Km), where S is the ATP substrate concentration, and Km is the Michaelis constant for ATP as determined experimentally. All results were expressed as the mean± the standard error of the mean. Data acquisition and non-linear regression algorithms were performed using Activity Base v5.2 and XL-fit software v4.1 respectively. All data was archived using Activity Base v5.2 software.

The subject of experiment [1] is secreted IL-8 by whole blood activated with TNF-α. The experiment can be described thus: Inhibition of TNF-α induced IL-8 in 50% human whole blood. It counts as cell-based. As for the experimental part:
Inhibition of TNF-α Induced IL-8 in 50% Human Whole Blood
Test compounds were evaluated in vitro for the ability to inhibit the production of secreted IL-8 by whole blood activated with TNF-α. Fresh human whole blood was obtained from healthy, non-medicated volunteers in sodium heparin tubes.
Compound Dilution—Assay Procedure
Test compounds are serially diluted 1:3 in DMSO and then diluted 1:250 into R10 (RPMI 1640, 10% human serum AB, 1× pen/strep/glutamine) to the 4× working concentration to be used in the assay. 100 ul heparinized whole blood is plated into wells of 96 well flat bottom plates. 50 ul of either 4× compound or DMSO control (Final DMSO concentration is 0.1%) are added to the appropriate wells. Plates are incubated for 1 hour at 37 degrees Celsius. 50 ul of 4× TNF-α (4 nM TNF-α, for a final concentration of 1 nM) or control (media alone) is added to the appropriate wells (Total volume=200 ul). Plates are incubated overnight (16-18 hours). 100 ul of supernatant is collected and stored in 96-well round bottom polypropylene plates at −80 degrees Celsius or assayed immediately for IL-8.
Cytokines are measured on antibody (Ab) sandwich ECL based 96-well detection plates. 20 ul of supernatant are added to plate and plate is sealed and shaken at RT for 1 hour. 130 ul of detection Ab cocktail is added and plates are sealed and shaken for 1 hour in the dark at RT. Plates are read on MSD Sector HTS instrument. Data are analyzed and IC50 values generated using Activity Base and Xl-fit programs.

For experiment [2], the system named is TNF-α secretion by LPS-treated THP1 cells. The experiment can be described thus: Lipopolysaccharide-activated THP1 cell TNF production assay. It counts as cell-based. Particulars: Homo sapiens, THP-1, 3 hours, read-out: IC50 in the THP-1 cellular TNF production assay. The protocol: Lipopolysaccharide-Activated THP1 Cell TNF Production Assay
THP1 cells were resuspended in fresh THP1 media (RPMI 1640, 10% heat-inactivated FBS, 1×PGS, 1×NEAA, plus 30 μM βME) at a concentration of 1.5×10^6 cells per mL. One hundred microliters of cells per well were plated in a polystyrene 96-well tissue culture plate. 1.5 micrograms per mL of bacterial LPS was prepared in THP1 media and transferred to the first 11 columns of a 96-well polypropylene plate. Column 12 contained only THP1 media for the LO control. Compounds were dissolved in 100% DMSO and serially diluted 3 fold in a polypropylene 96-well microtiter plate (drug plate). Columns 6 and 12 were reserved as controls (HI controls and LO controls respectively) and contained only DMSO. 10 μL of LPS followed by one microliter of inhibitor compound from the drug plate was transferred to the cell plate. The treated cells were induced to synthesize and secrete TNF-α in a 37° C. humidified incubator with 5% CO2 for 3 hours. Fifty microliters of conditioned media was transferred to a 96-well MULTI-ARRAY™ 96-well small spot plate—custom coated with MAB610 containing 100 μL of 2× Read Buffer P supplemented with 0.34 nM AF210NA polyclonal Ab labeled with ruthenium (MSD-Sulfo-TAG™—NHS ester). After an overnight incubation at room temperature with shaking, the reaction was read on the Sector Imager™ 6000. […] The amount of secreted TNF-α in the presence of AMG compounds compared with that in the presence of DMSO vehicle alone (HI control) was calculated using the formula: % control (POC)=(cpd−average LO)/(average HI−averageLO)*100. Data (consisting of POC and inhibitor concentration in μM) was fitted to a 4-parameter equation (y=A+((B−A)/(1+((x/C)^D))), where A is the minimum y (POC) value, B is the maximum y (POC), C is the x (cpd concentration) at the point of inflection and D is the slope factor) using a Levenburg-Marquardt non-linear regression algorithm.

Where [3] appears, read: 50% human whole blood, TNF-α (1 nM final) induced IL-8, 16-18 hours, read-out: WB TNF/IL8 IC50.
Where [4] appears, read: Homo sapiens, read-out: IC50, TNF-α induced IL-8 in 50% human whole blood.

`CNc1noc2c(-c3cc4cnn(-c5c(F)cccc5F)c4n(C)c3=O)c(C)ccc12` [Example 5, 1-(2,6-difluorophenyl)-7-methyl-5-(6-methyl-3-(methylamino)-1,2-benzisoxazol-7-yl)-1,7-dihydro-6H-pyrazolo[3,4-b]pyridin-6-one]: the IC50 is 6.7 nM at recombinant human p38α, 2.7 nM in experiment [1] (setting [3]), not above 100 nM in experiment [1] (setting [4]) and not above 100 nM in experiment [2].

For the compound `Cc1ccc2c(NC3CC3)noc2c1-c1cc2cnn(-c3c(F)cccc3F)c2n(C)c1=O` [Example 1, 5-(3-(cyclopropylamino)-6-methylbenzo[d]isoxazol-7-yl)-1-(2,6-difluorophenyl)-7-methyl-1H-pyrazolo[3,4-b]pyridin-6(7H)-one], the IC50 on recombinant human p38α is 8.1 nM; in experiment [1] (setting [3]), 1.1 nM; in experiment [1] (setting [4]), not above 100 nM; in experiment [2], not above 100 nM.
